Reference: article PMC8878107, “Human Enterovirus B: Selective Inhibition by Quinoxaline Derivatives and Bioinformatic RNA-Motif Identification as New Targets” (Pharmaceuticals, 2022)

Key:
CVB4 [1] = experiment: Plaque-reduction assay, CVB4 in Vero-76 cells; type: cell-based, human enterovirus B
Method: (§1) The activity of compounds against EV-A71 and D68 was based on inhibition of virus-induced cytopathogenicity in HeLa and Vero-76 cells, respectively, acutely infected at a multiplicity of infection (m.o.i.) of 0.01. After a 72 or 120 h incubation at 37 °C, cell viability was verified by the MTT method, as previously described. The activity of compounds against CVB3, CVB4, CVB5, and E9 was determined in infected cell monolayers by plaque-reduction assays, as previously reported. Briefly, the monolayer of Vero-76 cells or LLC-MK2 (E9) was grown overnight on a 24-well plate. The cells were then infected for 2 h with 250 μL of proper virus dilutions to obtain 50–100 PFU/well. Following removal of the unadsorbed virus, 500 μL of the medium (D-MEM with L-glutamine, 4500 mg/L D-glucose, and 1% inactivated FBS) containing 0.75% methyl-cellulose, with serial dilutions of quinoxalines, was added. The overlay was also added to untreated wells (non-infection controls). Cultures were incubated at 37 °C for 3 (CVB3, CVB4, CVB5) or 5 days (E9) and then fixed with PBS containing 50% ethanol and 0.8% crystal violet, washed and air-dried. Plaques were then counted.
(§2) The size of cell growth/viability and viral multiplication at each tested drug concentration was expressed as percentage of untreated controls. Concentrations resulting in 50% inhibition (CC50 or EC50) were determined by linear regression analysis.

[2] = Cytotoxicity, MTT method, mock-infected Vero-76 cells; type: cell-based; conditions: African green monkey (Cercopithecus aethiops), concentration reducing viability of mock-infected Vero-76 cells by 50%, read-out: CC50 Vero76
Method: (§3) HeLa cells were seeded in 96-well plates at a density of 5 × 10^5 cells/mL, in minimum essential medium with Earle’s salts (MEM-E), L-glutamine, 1 mM sodium pyruvate, and 25 mg/L kanamycin, supplemented with 10% fetal bovine serum (FBS). Vero-76 and LLC-MK2 cells were seeded in 96-well plates at a density of 5 × 10^5 cells/mL in Dulbecco’s modified eagle medium (D-MEM) with L-glutamine and 25 mg/L kanamycin, complemented with 10% FBS. Cell cultures were then incubated in a humidified, 5% CO2 atmosphere at 37 °C, with or without serial dilutions of analyzed compounds. The medium used for the cytotoxic assay, as well as for antiviral assays, included 1% of the proper serum. Cell viability was determined after 72–120h at 37 °C by MTT method.
as §2

EV-D68 = experiment: Inhibition of EV-D68-induced cytopathogenicity, MTT method; type: cell-based, human enterovirus D 68; conditions: Enterovirus D, EVD68, 72 h; HeLa cells, MTT method after 3 days p.i.
Method: as §1, with “After” for “The activity of compounds against EV-A71 and D68 was based on inhibition of virus-induced cytopathogenicity in HeLa and Vero-76 cells, respectively, acutely infected at a multiplicity of infection (m.o.i.) of 0.01. After”
as §2

[3] = Cytotoxicity, MTT method, mock-infected LLC-MK2 cells; type: cell-based; conditions: rhesus monkey, concentration reducing viability of mock-infected LLC-MK2 cells by 50%
Method: as §3, §2

E9 [4] = experiment: Plaque-reduction assay, E9 in LLC-MK2 cells; type: cell-based, human enterovirus B; conditions: Enterovirus B; for EC50: concentration reducing plaque number by 50%
Method: as §1, §2

[5] = Cytotoxicity, MTT method, mock-infected HeLa cells; type: cell-based; conditions: human, concentration reducing viability of mock-infected HeLa cells by 50%
Method: as §3, §2

CVB4 [6] = experiment: Virus yield reduction assay (YRA), CVB4 in Vero-76 cells; type: cell-based, human enterovirus B; conditions: m.o.i. 0.1, 72 h
Method: (§4) Vero-76 and LL-MKC cells were inoculated with CVB3, CVB4, or E9 at an m.o.i. of 0.1 in maintenance medium and compounds at non-cytotoxic concentrations. After the adsorption period (2 h) at 37 °C and 5% CO2, the inoculum was removed and replaced with fresh medium containing the same concentration of compounds. After 72 h for CVB3 and CVB4 or 120 h for E9 at 37 °C and 5% CO2, each sample was collected and diluted with serial passages, starting from 10^−1, up to 10^−10. The titers of the supernatants were quantified by standard plaque assay. NM 107 (2’-C-Methyl-Cytidine) and pleconaril were employed as reference compounds.

CVB3 [7] = experiment: Virus yield reduction assay (YRA), CVB3 in Vero-76 cells; type: cell-based, human enterovirus B; conditions: m.o.i. 0.1, 72 h; for Reduction of CVB3 viral titers (trend over concentrations): non-cytotoxic concentrations (100, 20, 4, 0.8 µM)
Method: as §4

CVB4 [8] = experiment: Adsorption assay, CVB4 in Vero-76 cells; type: cell-based, human enterovirus B; conditions: 20 µM, 2 h at 4 °C, m.o.i. 0.1, Vero-76 cells
Method: (§5) Vero-76 cells were incubated with CVB3 and CVB4 (m.o.i. = 0.1) and derivatives 6 or 7 for 2 h at 4 °C, using compound concentrations of 20 µM. […] LLC-MK2 cells were incubated with E9 and derivative 8 (Figure 3e) under the above-described experimental conditions. To identify the replication stage inhibited by quinoxaline derivatives, we performed a time-of-drug addiction assay (T.O.A.) (Figure 3a–e). Experiments were carried out on CVB3-, CVB4-,and E9-infected cells (m.o.i. = 1) treated with compounds (20 µM) at different step times of infection until 12 h post-infection, followed by virus titer determination by plaque assay.
(§6) Vero-76 and LLC-MK2 cells grown in 24-well plates were infected with CVB3, CVB4, and E9, at an m.o.i. of 0.1, with or without test compounds, and incubated for 120 min at 4 °C. Medium containing unbound virus was then removed, and cells were washed twice with PBS and overlayed with fresh medium. Plaques were counted after 72 h of incubation at 37 °C.

EV-A71 = experiment: Inhibition of EV-A71-induced cytopathogenicity, MTT method; type: cell-based, human enterovirus A71; conditions: Enterovirus A, EVA71, 96 h, 50% protection of Vero-76 cells from EV-A71-induced cytopathogenicity, day 4/5 p.i.
CVB3 [9] = experiment: Adsorption assay, CVB3 in Vero-76 cells; type: cell-based, human enterovirus B; conditions: 20 µM, 2 h at 4 °C, m.o.i. 0.1, Vero-76 cells
Method: as §5, §6

CVB3 [10] = experiment: Plaque-reduction assay, CVB3 in Vero-76 cells; type: cell-based, human enterovirus B
Method: as §1, §2

E9 [11] = experiment: Virus yield reduction assay (YRA), E9 in LLC-MK2 cells; type: cell-based, human enterovirus B
Method: as §4

[12] = Enterovirus B, CVB4, Vero 76, concentration reducing plaque number by 50%
[13] = Enterovirus B, CVB4, Vero 76, concentration reducing plaque number by 90%
[14] = concentration reducing plaque number by 50%
[15] = concentration reducing plaque number by 90%
[16] = Enterovirus B, CVB3, Vero 76, concentration reducing plaque number by 50%
[17] = Enterovirus B, CVB3, Vero 76, concentration reducing plaque number by 90%

Row | Compound | EC50 (CVB4 [1]; [12]) | CC50 [2] | EC50 (EV-D68) | CC50 [3] | EC50 (E9 [4]) | CC50 [5] | EC90 (CVB4 [1]; [13]) | Reduction of CVB3 viral titers (trend over concentrations) (CVB3 [7]) | CVB4 virus titer in comparison to the untreated infected control (CVB4 [8]) | EC50 (EV-A71) | CVB3 virus titer in comparison to the untreated infected control (CVB3 [9]) | EC50 (CVB3 [10]; [16]) | EC90 (CVB3 [10]; [17]) | EC50 (CVB3 [10]; [14]) | other results
1 | Cc1cc(CCCOc2c(C)cc(-c3noc(C(F)(F)F)n3)cc2C)on1 [PLe, Pleconaril, reference compound] | 2 ± 1 µM | > 100 µM | 0.4 ± 0.2 µM | > 100 µM | 0.1 ± 0.05 µM | > 100 µM | – | – | – | – | – | – | – | – | –
2 | COc1nc2ccc(CSc3ccc(C(=O)O)cc3)cc2nc1OC [Compound 7] | 1.5 µM | 100 µM | > 95 µM | 100 µM | > 100 µM | 95 µM | 3 µM | dose-dependent reduction of viral titers | detectable reduction of the virus titer | > 100 µM | detectable reduction of the virus titer | 2 to 3 µM | 14 µM | 2 µM | EC50 (CVB4 [1]; [14]): 1.45 µM; EC90 (CVB4 [1]; [15]): 3.2 µM; Inhibition of CVB4 (CVB4 [6]; 0.8 µM): no significant inhibition; Production of CVB4 virus (CVB4 [6]; 100, 20, and 4 µM): completely inhibited; Reduction in CVB3 viral load (CVB3 [7]; 4 µM): one log reduction in viral load
3 | CCOC(=O)c1ccc(SCc2ccc3nc(OC)c(OC)nc3c2)cc1 [Compound 6] | 1.7 µM | > 100 µM | > 100 µM | > 100 µM | > 100 µM | > 100 µM | 12 µM | same trend of reduction in viral loads | detectable reduction of the virus titer | > 100 µM | detectable reduction of the virus titer | 2 to 3 µM | 12 µM | 2.5 µM | Reduction of CVB4 viral titers (CVB4 [6]; 0.8 µM): 2 logs; Reduction of CVB4 viral titers (CVB4 [6]; 4 µM): 2.5 logs; Effect on CVB4 viral titers (CVB4 [6]; 100 and 20 µM): complete suppression; EC90 (CVB3 [10]; [15]): 13 µM
4 | COc1nc2ccc(CSc3ccc(C(=O)O)cn3)cc2nc1OC [Compound 9] | > 100 µM | 100 µM | 70 µM | 100 µM | 55 µM | > 100 µM | – | – | – | > 100 µM | – | 100 µM | – | – | –
5 | C[C@@]1(O)[C@H](O)[C@@H](CO)O[C@H]1n1ccc(N)nc1=O [NM107, 2′-C-methylcytidine, reference compound] | – | > 100 µM | – | – | – | – | – | – | – | 6 ± 1 µM | – | 29 ± 3 µM | – | – | –
6 | CCOC(=O)c1ccc(SCc2ccc3nc(OC)c(OC)nc3c2)nc1 [Compound 8] | > 100 µM | > 100 µM | 50 µM | > 100 µM | 6 µM | > 100 µM | – | – | – | > 100 µM | – | > 100 µM | – | – | Effect on E9 viral replication (E9 [11]; 100 and 20 µM, m.o.i. 0.1, 120 h): completely suppressed viral replication; Reduction in E9 viral loads (E9 [11]; lower concentrations (below 20 µM)): no reduction in viral loads; EC90 (E9 [4]; [15]): 16 µM
